Laboratory results reported in the supplement of paper PMC10307832.

Columns and labels:
Assay in all cases: relative viability (nuclei count vs DMSO), 5 days (fraction); higher = more cells survive
AZD6482 + Linsitinib = compound: Cc1cc([C@@H](C)Nc2ccccc2C(=O)O)c2nc(N3CCOCC3)cc(=O)n2c1 [AZD6482] + C[C@]1(O)C[C@@H](c2nc(-c3ccc4ccc(-c5ccccc5)nc4c3)c3c(N)nccn32)C1 [Linsitinib] (partner 1 µM)
Outline: (§1)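 Dosing by pin tool came one day after lung cancer cell lines were seeded in 1536-well plates, using either one drug or a fixed anchor-drug dose plus five library-drug doses (not always all listed) in √10 steps. After 5 days, nuclei were counted on 4× images. Relative viability is treated-well nuclei count divided by vehicle-well nuclei count, and values are medians of duplicate plates.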

[1] = compound: COc1cc2nc(N3CCCN(C)CC3)nc(NC3CCN(Cc4ccccc4)CC3)c2cc1OC + Nc1ncn([C@H]2C[C@H](O)[C@@H](CO)O2)c(=O)n1 [Decitabine] (partner 2 µM)
Outline: as §1

[2] = compound: COc1cc2nc(N3CCCN(C)CC3)nc(NC3CCN(Cc4ccccc4)CC3)c2cc1OC + N=C(N)NC(=N)NCCc1ccccc1 [Phenformin] (partner 250 µM)
Outline: as §1

[3] = compound: COc1cc2nc(N3CCCN(C)CC3)nc(NC3CCN(Cc4ccccc4)CC3)c2cc1OC + CCNC(=O)c1noc(-c2cc(C(C)C)c(O)cc2O)c1-c1ccc(CN2CCOCC2)cc1 [Luminespib] (partner 0.01 µM)
Outline: as §1

NCI-H441
relative viability (AZD6482 + Linsitinib; first compound 0.08 µM): 0.459
relative viability (AZD6482 + Linsitinib; first compound 0.253 µM): 0.499
relative viability (AZD6482 + Linsitinib; first compound 0.8 µM): 0.554
relative viability (AZD6482 + Linsitinib; first compound 2.53 µM): 0.323
relative viability (AZD6482 + Linsitinib; first compound 8 µM): 0.531
relative viability ([1]; first compound 0.2 µM): 0.239
relative viability ([1]; first compound 0.6325 µM): 0.225
relative viability ([1]; first compound 2 µM): 0.3
relative viability ([1]; first compound 6.325 µM): 0.206
relative viability ([2]; first compound 0.2 µM): 0.821
relative viability ([2]; first compound 0.6325 µM): 0.859
relative viability ([2]; first compound 2 µM): 1.03
relative viability ([2]; first compound 6.325 µM): 0.85
relative viability ([3]; first compound 0.2 µM): 0.318
relative viability ([3]; first compound 0.6325 µM): 0.368
relative viability ([3]; first compound 2 µM): 0.334
relative viability ([3]; first compound 6.325 µM): 0.584

NCI-H1703
relative viability (AZD6482 + Linsitinib; first compound 0.08 µM): 1.01
relative viability (AZD6482 + Linsitinib; first compound 0.253 µM): 0.398
relative viability (AZD6482 + Linsitinib; first compound 0.8 µM): 0.478
relative viability (AZD6482 + Linsitinib; first compound 2.53 µM): 0.249
relative viability (AZD6482 + Linsitinib; first compound 8 µM): 0.47

NCI-H1792
relative viability (AZD6482 + Linsitinib; first compound 0.08 µM): 0.313
relative viability (AZD6482 + Linsitinib; first compound 0.253 µM): 0.41
relative viability (AZD6482 + Linsitinib; first compound 0.8 µM): 0.501
relative viability (AZD6482 + Linsitinib; first compound 2.53 µM): 0.319
relative viability (AZD6482 + Linsitinib; first compound 8 µM): 0.271
relative viability ([1]; first compound 0.2 µM): 0.625
relative viability ([1]; first compound 0.6325 µM): 0.553
relative viability ([1]; first compound 2 µM): 0.481
relative viability ([1]; first compound 6.325 µM): 0.496
relative viability ([2]; first compound 0.6325 µM): 0.257
relative viability ([2]; first compound 2 µM): 0.467
relative viability ([2]; first compound 6.325 µM): 0.268
relative viability ([3]; first compound 0.6325 µM): 0.377
relative viability ([3]; first compound 2 µM): 0.419
relative viability ([3]; first compound 6.325 µM): 0.721

Calu-6
relative viability (AZD6482 + Linsitinib; first compound 0.08 µM): 0.726
relative viability (AZD6482 + Linsitinib; first compound 0.253 µM): 0.889
relative viability (AZD6482 + Linsitinib; first compound 0.8 µM): 0.89
relative viability (AZD6482 + Linsitinib; first compound 2.53 µM): 0.701
relative viability (AZD6482 + Linsitinib; first compound 8 µM): 0.899

SK-LU-1
relative viability (AZD6482 + Linsitinib; first compound 0.253 µM): 0.905
relative viability (AZD6482 + Linsitinib; first compound 0.8 µM): 1.1
relative viability (AZD6482 + Linsitinib; first compound 2.53 µM): 0.886
relative viability (AZD6482 + Linsitinib; first compound 8 µM): 0.912
relative viability ([1]; first compound 0.2 µM): 0.644
relative viability ([1]; first compound 0.6325 µM): 0.706
relative viability ([1]; first compound 2 µM): 0.703
relative viability ([1]; first compound 6.325 µM): 0.618
relative viability ([2]; first compound 0.2 µM): 0.537
relative viability ([2]; first compound 0.6325 µM): 0.517
relative viability ([2]; first compound 2 µM): 0.616
relative viability ([2]; first compound 6.325 µM): 0.462
relative viability ([3]; first compound 0.2 µM): 0.184
relative viability ([3]; first compound 0.6325 µM): 0.213
relative viability ([3]; first compound 2 µM): 0.197
relative viability ([3]; first compound 6.325 µM): 0.178

PC-3 [JPC-3]
relative viability (AZD6482 + Linsitinib; first compound 0.08 µM): 0.911
relative viability (AZD6482 + Linsitinib; first compound 0.253 µM): 1.04
relative viability (AZD6482 + Linsitinib; first compound 0.8 µM): 1.02
relative viability (AZD6482 + Linsitinib; first compound 2.53 µM): 0.787
relative viability (AZD6482 + Linsitinib; first compound 8 µM): 0.841
relative viability ([1]; first compound 0.2 µM): 0.863
relative viability ([1]; first compound 0.6325 µM): 0.805
relative viability ([1]; first compound 2 µM): 0.718
relative viability ([1]; first compound 6.325 µM): 0.674
relative viability ([2]; first compound 0.2 µM): 0.484
relative viability ([2]; first compound 0.6325 µM): 0.499
relative viability ([2]; first compound 2 µM): 0.488
relative viability ([2]; first compound 6.325 µM): 0.521
relative viability ([3]; first compound 0.2 µM): 0.753
relative viability ([3]; first compound 0.6325 µM): 0.675
relative viability ([3]; first compound 2 µM): 0.745
relative viability ([3]; first compound 6.325 µM): 0.585

EMC-BAC-2
relative viability (AZD6482 + Linsitinib; first compound 0.08 µM): 0.744
relative viability (AZD6482 + Linsitinib; first compound 0.253 µM): 0.681
relative viability (AZD6482 + Linsitinib; first compound 0.8 µM): 0.781
relative viability (AZD6482 + Linsitinib; first compound 2.53 µM): 0.529
relative viability (AZD6482 + Linsitinib; first compound 8 µM): 0.587
relative viability ([1]; first compound 0.2 µM): 0.997
relative viability ([1]; first compound 0.6325 µM): 0.968
relative viability ([1]; first compound 2 µM): 0.882
relative viability ([1]; first compound 6.325 µM): 0.915
relative viability ([2]; first compound 0.2 µM): 0.531
relative viability ([2]; first compound 0.6325 µM): 0.477
relative viability ([2]; first compound 2 µM): 0.496
relative viability ([2]; first compound 6.325 µM): 0.523
relative viability ([3]; first compound 0.2 µM): 1.09
relative viability ([3]; first compound 0.6325 µM): 1.17
relative viability ([3]; first compound 2 µM): 1.2
relative viability ([3]; first compound 6.325 µM): 1.14

LK-2
relative viability (AZD6482 + Linsitinib; first compound 0.08 µM): 0.587
relative viability (AZD6482 + Linsitinib; first compound 0.253 µM): 0.521
relative viability (AZD6482 + Linsitinib; first compound 0.8 µM): 0.791
relative viability (AZD6482 + Linsitinib; first compound 2.53 µM): 0.513
relative viability (AZD6482 + Linsitinib; first compound 8 µM): 0.421
relative viability ([1]; first compound 0.2 µM): 0.276
relative viability ([1]; first compound 0.6325 µM): 0.244
relative viability ([1]; first compound 2 µM): 0.359
relative viability ([1]; first compound 6.325 µM): 0.326
relative viability ([2]; first compound 0.2 µM): 0.504
relative viability ([2]; first compound 0.6325 µM): 0.569
relative viability ([2]; first compound 2 µM): 0.576
relative viability ([2]; first compound 6.325 µM): 0.311
relative viability ([3]; first compound 0.2 µM): 0.188
relative viability ([3]; first compound 0.6325 µM): 0.188
relative viability ([3]; first compound 2 µM): 0.164
relative viability ([3]; first compound 6.325 µM): 0.186

NCI-H2126
relative viability (AZD6482 + Linsitinib; first compound 0.08 µM): 0.551
relative viability (AZD6482 + Linsitinib; first compound 0.253 µM): 0.591
relative viability (AZD6482 + Linsitinib; first compound 0.8 µM): 0.518
relative viability (AZD6482 + Linsitinib; first compound 2.53 µM): 0.485
relative viability (AZD6482 + Linsitinib; first compound 8 µM): 0.548
relative viability ([1]; first compound 0.2 µM): 0.577
relative viability ([1]; first compound 0.6325 µM): 0.55
relative viability ([1]; first compound 2 µM): 0.561
relative viability ([1]; first compound 6.325 µM): 0.567
relative viability ([2]; first compound 0.2 µM): 0.493
relative viability ([2]; first compound 0.6325 µM): 0.601
relative viability ([2]; first compound 2 µM): 0.538
relative viability ([2]; first compound 6.325 µM): 0.472
relative viability ([3]; first compound 0.2 µM): 0.877
relative viability ([3]; first compound 0.6325 µM): 0.864
relative viability ([3]; first compound 2 µM): 0.754
relative viability ([3]; first compound 6.325 µM): 0.815

NCI-H3122
relative viability (AZD6482 + Linsitinib; first compound 0.08 µM): 0.828
relative viability (AZD6482 + Linsitinib; first compound 0.253 µM): 0.993
relative viability (AZD6482 + Linsitinib; first compound 0.8 µM): 1.02
relative viability (AZD6482 + Linsitinib; first compound 2.53 µM): 0.85
relative viability (AZD6482 + Linsitinib; first compound 8 µM): 0.816
relative viability ([1]; first compound 0.2 µM): 0.398
relative viability ([1]; first compound 0.6325 µM): 0.451
relative viability ([1]; first compound 2 µM): 0.461
relative viability ([1]; first compound 6.325 µM): 0.363
relative viability ([2]; first compound 0.2 µM): 0.403
relative viability ([2]; first compound 0.6325 µM): 0.363
relative viability ([2]; first compound 2 µM): 0.401
relative viability ([2]; first compound 6.325 µM): 0.331
relative viability ([3]; first compound 0.2 µM): 0.0795
relative viability ([3]; first compound 0.6325 µM): 0.0919
relative viability ([3]; first compound 2 µM): 0.0888
relative viability ([3]; first compound 6.325 µM): 0.0791

NCI-H1975
relative viability (AZD6482 + Linsitinib; first compound 0.08 µM): 0.748
relative viability (AZD6482 + Linsitinib; first compound 0.253 µM): 0.938
relative viability (AZD6482 + Linsitinib; first compound 0.8 µM): 0.874
relative viability (AZD6482 + Linsitinib; first compound 2.53 µM): 0.739
relative viability (AZD6482 + Linsitinib; first compound 8 µM): 0.592
relative viability ([1]; first compound 0.2 µM): 0.37
relative viability ([1]; first compound 0.6325 µM): 0.39
relative viability ([1]; first compound 2 µM): 0.419
relative viability ([1]; first compound 6.325 µM): 0.37
relative viability ([2]; first compound 0.2 µM): 0.414
relative viability ([2]; first compound 0.6325 µM): 0.431
relative viability ([2]; first compound 2 µM): 0.411
relative viability ([2]; first compound 6.325 µM): 0.389
relative viability ([3]; first compound 0.2 µM): 0.159
relative viability ([3]; first compound 0.6325 µM): 0.212
relative viability ([3]; first compound 2 µM): 0.21
relative viability ([3]; first compound 6.325 µM): 0.264
